The source of these data is US8563712B2, “Hydroxy-substituted gold(III) porphyrin complexes as histone deacetylase inhibitors” (The University of Hong Kong, priority 2009, dated 2013).

For one data set, the system named is MDA-MB-231. The experiment in a line: Crystal violet anti-proliferative assay. The data set is classed as cell-based, human. The procedure: (§1) Table 1). The presence of high concentrations of serum had no effects on the potencies of the drug. […] Similar results were observed when the drug exposure time was extended to 48 h. […] The antiproliferative activity of another gold(III) porphyrin complex ([Au^III(TPP)]Cl, gold-1a) in MDA-MB-231 cells was also tested. […] Apoptosis of MDA-MB-231 cells were evaluated by measuring DNA fragmentation.

For data set [1], the system named is MDA-MB-231 tumor xenograft. As to the kind of experiment: Mammary MDA-MB-231 tumor growth in nude mice. The data set is classed as in vivo. Here is the method: Most of the animals remained in a tumor-free status until day 25, at which recurrence of a tumor was observed.
MDA-MB-231 cells were inoculated into the mammary fat pad of nude mice as described in Methods. […] Tumor growth (A) and body weight (B) were monitored bi-weekly. C, Kaplan-Meier estimates of the survival curves were calculated and plotted. D, At the end of experiment, tumors were collected and weighed. # and *, P<0.05 versus PET control, n=4-6.

The subject of a further data set is BT474. The experiment in a line: Crystal violet anti-proliferative assay. The data set is classed as cell-based, human. The procedure: as §1
The next data set relates to SKBR3. As to the kind of experiment: Crystal violet anti-proliferative assay. The data set is classed as cell-based, human. Here is the method:
as §1

In a further data set the test system is MCF7. As to the kind of experiment: Crystal violet anti-proliferative assay. The class given is cell-based, human. The procedure: as §1
For the next data set, the system named is T47D. The experiment in a line: Crystal violet anti-proliferative assay. The data set is classed as cell-based, human. Here is the method:
as §1

In data set [2] the test system is human breast carcinoma cells (BT474, MCF-7, T47D, MDA-MB-231, SKBR3). As to the kind of experiment: Crystal violet assay, statements on the whole panel. The data set is classed as cell-based. To be noted: five breast carcinoma cell lines. The procedure:
as §1

In another data set the test system is β-catenin. As to the kind of experiment: β-catenin protein level, nuclear activity, phosphorylation and ubiquitination. The class given is cell-based, human. The following applies: MDA-MB-231 cells. An excerpt: Aberrant activation of the Wnt/β-catenin signalling plays a key role in the development of many human cancer diseases. Intracellular accumulation of β-catenin protein has been observed in a large portion of human breast tumors. […] On the contrary, cisplatin had no influence on both the protein levels and nuclear activities of β-catenin. In the absence of a Wnt signal, β-catenin is phosphorylated by glycogen synthase kinase-3beta, which facilitates the subsequent ubiquitination and proteasome degradation.

In a further data set the test system is histone H4 acetylation. As to the kind of experiment: Western blotting of global acetylated histone H4. The data set is classed as cell-based, human. The following applies: MDA-MB-231, six and 24 hours.
The next data set relates to acetylated histone H4. The experiment in a line: ChIP-PCR of acetylated histone H4 at promoter regions. The data set is classed as cell-based, human. To be noted: MDA-MB-231, 24 hours. Here is the method:
To further confirm these unexpected observations, ChIP-PCR was performed to quantify the acetylated histone H4 levels at the promoter regions of the above genes. […] Similar levels of acetylated histone H4 were only observed at 24 hours after treatment.
MDA-MB-231 cells were treated with different drugs for 24 hours. ChiP-PCR was performed for analyzing the levels of acetylated histone H4 at the promoter regions of CTNNB1, WIF1, WNT5B, WNT1, WISP1 and ESR1, using antibody recognizing histone H4 acetylated at lysines 5, 8, 12, and 16. Bar charts represented the quantitative results by real time PCR analysis after normalization against the input DNA. Representative agarose gel images were shown at the bottom. […] Equal protein loading was confirmed by Amido black staining. *, P<0.01 versus vehicle control, n=3.

The mark [3] stands for this setting: intraductal 15 mg/kg, end of experiment.

With [Au^III(TPP)]Cl [gold-1a], the “less effective than gold-2a (growth inhibition curves)” value in the data set on MDA-MB-231 (MDA-MB-231 cells, non-linear regression) is approximately 1000 fold. Moreover, the “inhibition of breast tumor growth” value in data set [1] (sub-lethal concentrations) is on record as “no inhibition”.
A word on the IC50: it is the concentration needed to halve the response being measured. Low readings indicate inhibition by little substance, high ones a need for much substance. Consider `N.N.[Cl][Pt][Cl]` [cisplatin], for which the IC50 worked out at 49 ± 0.5 µM in the data set on BT474 (24 hours, 0.5% FBS); 45.1 ± 8.2 µM with BT474 (24 hours, 10% FBS); 1.6 ± 0.53 µM in the data set on BT474 (48 hours, 0.5% FBS); 2.89 ± 0.9 µM in the data set with BT474 (48 hours, 10% FBS); 65.9 ± 25.5 µM in the data set with SKBR3 (24 hours, 0.5% FBS); 76.3 ± 33.8 µM in the data set with SKBR3 (24 hours, 10% FBS). Moreover, the IC50 turned out to be 33.9 ± 11 µM with SKBR3 (48 hours, 0.5% FBS); 41 ± 7.91 µM in the data set on SKBR3 (48 hours, 10% FBS); 7.37 ± 1.19 µM with MDA-MB-231 (24 hours, 0.5% FBS); 21 ± 11.2 µM in the data set on MDA-MB-231 (24 hours, 10% FBS); 6.52 ± 0.48 µM in the data set with MDA-MB-231 (48 hours, 0.5% FBS); 18.4 ± 3.42 µM with MDA-MB-231 (48 hours, 10% FBS). Besides, the IC50 in the data set with MCF7 (24 hours, 0.5% FBS) amounted to 14.3 ± 1.46 µM; in the data set on MCF7 (24 hours, 10% FBS), 20.1 ± 4.92 µM; with MCF7 (48 hours, 0.5% FBS), 10.1 ± 1.47 µM; with MCF7 (48 hours, 10% FBS), 15.9 ± 2.33 µM; in the data set on T47D (24 hours, 0.5% FBS), 66.5 ± 12.4 µM; in the data set on T47D (24 hours, 10% FBS), 99.4 ± 5.71 µM. In addition, the concentration for half-maximal inhibition (IC50) was determined as 7.76 ± 5.54 µM in the data set on T47D (48 hours, 0.5% FBS) and 6.69 ± 3.14 µM in the data set with T47D (48 hours, 10% FBS). The “IC50 values higher when compared to gold-2a” value in data set [2] is 100-3000 times. Also, the “nuclear transcriptional activities of β-catenin” value with β-catenin is on record as “no influence”. Moreover, the “protein levels of β-catenin” value with β-catenin (from four hours, 0.5% and 10% FBS) was “no influence”. The compound further had an animals died in data set [1] (after two intraductal injections) of approximately 40%. The compound further came in with an average tumor weights in data set [1] (setting [3]) of 0.42 g. For the same compound, the “tumor weight decreased compared to control group” value in data set [1] (setting [3]) was determined as 34%. The “rates of tumor growth compared to gold-2a” value in data set [1] (intraductal, same dosage (15 mg/kg)) is on record as “attenuated the rates of tumor growth to a much lesser degree”.
As for `CC(/C=C/C(=O)NO)=C\[C@@H](C)C(=O)c1ccc(N(C)C)cc1` [TSA, trichostatin A], the “global histone H4 acetylation” value with histone H4 acetylation is “significant induction”. In addition, in the data set with acetylated histone H4, the “acetylated histone H4 at CTNNB1 promoter” value is recorded as “not significantly altered”, the “acetylated histone H4 at ESR1 promoter” value was “increased”, the “acetylated histone H4 at WIF1 promoter” value was “no significant effects” and the “acetylated histone H4 at WISP1 promoter” value is reported as “not significantly altered”. Also, in the data set on acetylated histone H4, the “acetylated histone H4 at WNT1 promoter” value is reported as “no significant effects” and the “acetylated histone H4 at WNT5B promoter” value was “no significant effects”.
